Experimental data reported in patent EP4692061A1, “LOW-MOLECULAR-WEIGHT COMPOUND HAVING CEREBLON-BINDING ACTIVITY, AND USE THEREOF” (Aevis Bio, Inc., priority 2023, dated 2024).
Read-outs that look alike come from different tables or passages of the source.

Columns and labels:
MM.1S = assay: Tumor cell viability, CCK-8 assay, MM.1S; format: cell-based; conditions: MM.1S (human multiple myeloma); compound treatment 1uM; 5 days
Experimental: (§1) To examine whether the compounds having CRBN-binding activity according to the present invention exert tumor cell apoptosis effects, the assay was conducted using various human cancer cell lines, including human multiple myeloma cell lines (MM.1S and MM.1R-LR), a human breast cancer cell line (MDA-MB-231), a human lung cancer cell line (A549), a human rhabdomyosarcoma cell line (RD), and a human lymphoma cell line (Jeko-1).
(§2) The MM.1S, MM.1R-LR, MDA-MB-231, A549, RD, and Jeko-1 cell lines were obtained from the American Type Culture Collection (ATCC, Manassas, VA, USA) and cultured in RPMI 1640 medium (Corning, MD, USA) or DMEM (Corning, MD, USA) supplemented with 10% fetal bovine serum (FBS) (Corning, MD, USA), 100 U/mL penicillin (Corning, MD, USA), and 100 µg/mL streptomycin (Corning, MD, USA) at 37°C in a 5% CO2 incubator for 24 hours. The cells were seeded at a density of 1 × 10^4 cells/well in 96-well plates and incubated for 24 hours. After incubation, the test compounds dissolved in dimethyl sulfoxide (DMSO, CAS No.: 67-68-5) were serially diluted to a final concentration of 10 µM and applied to the cells. Following an additional incubation for 2 to 5 days, the analysis was performed using a CCK-8 assay kit (Dojindo, Japan) according to the manufacturer's instructions.

MM.1R-LR = assay: Tumor cell viability, CCK-8 assay, MM.1R-LR; format: cell-based; conditions: MM.1R-LR (drug-resistant human multiple myeloma); compound treatment 1uM; 5 days
Experimental: as §1, §2

cereblon (CRBN) = cereblon (CRBN) (Homo sapiens, UniProt Q96SW2); assay: In vitro CRBN binding assay (AlphaScreen, competitive inhibition of the PROTAC assay)
[1] = Table 1; AlphaScreen, PROTAC Optimization Kit for BET Bromodomain-Cereblon Binding; read-out: Alpha IC50

Structure (SMILES) | IC50 (cereblon (CRBN); [1]) | also measured
Cc1ccc(C(=O)Nc2cccc(S(=O)(=O)Nc3cccc(C4CCC(=O)NC4=O)c3)c2)cc1 (centres unmarked) [AEV41009, N-(3-(N-(3-(2,6-dioxopiperidin-3-yl)phenyl)sulfamoyl)phenyl)-4-methylbenzamide] | 0.54 µM | Cell viability (% of control) (MM.1S): 92.9 % of control; Cell viability (% of control) (MM.1R-LR): 81.3 % of control
Cc1cccc(S(=O)(=O)Nc2cccc(C3CCC(=O)NC3=O)c2)c1 (centres unmarked) [AEV40069] |  | IC50 (cereblon (CRBN); read-out: Alpha IC50; Table 1; AlphaScreen, PROTAC Optimization Kit for BET Bromodomain-Cereblon Binding): 0.71 µM
COc1cc(Cl)ccc1CNc1cccc(C2CCC(=O)NC2=O)c1 (centres unmarked) [AEV40096] | 0.99 µM | 
CC1(C(=O)Nc2cccc(S(=O)(=O)Nc3cccc(C4CCC(=O)NC4=O)c3)c2)CC1 (centres unmarked) [AEV40227] | 0.98 µM | 
O=C1CCC(c2cccc(Nc3cccc(NC(=O)c4ccc(Cl)cc4Cl)c3)c2)C(=O)N1 (centres unmarked) [AEV40220] | 2.11 µM | 
O=C1CCC(c2cccc(NC(=O)c3cc4ccccc4[nH]3)c2)C(=O)N1 (centres unmarked) [AEV40190] | 2.14 µM | 
O=C1CCC(c2ccc3c(c2)C(=O)NC3)C(=O)N1 (centres unmarked) [AEV40032] | 3.1 µM | 
Cc1c(F)cccc1S(=O)(=O)Nc1cccc(C2CCC(=O)NC2=O)c1 (centres unmarked) [AEV40052] | 0.95 µM | 
O=C1CCC(c2cccc(NC(=O)c3ccc(Cl)cc3)c2)C(=O)N1 (centres unmarked) [AEV40139] | 2.12 µM | 
O=C1CCC(c2cccc(NS(=O)(=O)c3ccc(F)cc3)c2)C(=O)N1 (centres unmarked) [AEV40101] | 1.3 µM | 
CC(C)(C)OC(=O)NCc1cccc(Nc2cccc(C3CCC(=O)NC3=O)c2)c1 (centres unmarked) [AEV40186] | 2.63 µM | 
Cc1cc(Cl)ccc1C(=O)Nc1cccc(C2CCC(=O)NC2=O)c1 (centres unmarked) [AEV40147] | 1.37 µM | 
O=C1CCC(c2cccc(NS(=O)(=O)c3cccc(NC(=O)c4ccccc4Br)c3)c2)C(=O)N1 (centres unmarked) [AEV40155] | 0.95 µM | 
COc1cc(Cl)ccc1C(=O)Nc1cccc(C2CCC(=O)NC2=O)c1 (centres unmarked) [AEV40148] | 1.12 µM | 
O=C1CCC(c2cccc(NS(=O)(=O)c3ccccc3C(F)(F)F)c2)C(=O)N1 (centres unmarked) [AEV40070] | 1.05 µM | 
O=C1CCC(c2cccc(NS(=O)(=O)c3cccc(NCc4cc5ccccc5[nH]4)c3)c2)C(=O)N1 (centres unmarked) [AEV40163] | 1.43 µM | 
CS(=O)(=O)N1Cc2cc(C3CCC(=O)NC3=O)ccc2C1=O (centres unmarked) [AEV40059] | 102 µM | 
O=C1CCC(c2cccc(NC(=O)c3ccc(F)cc3)c2)C(=O)N1 (centres unmarked) [AEV40140] | 1.83 µM | 
O=C1CCC(c2cccc(NCc3ccc(F)cc3O)c2)C(=O)N1 (centres unmarked) [AEV40097] | 0.99 µM | 
CCCCc1ccc(C(=O)Nc2cccc(N3CCOc4cc(C5CCC(=O)NC5=O)ccc4C3=O)c2)cc1 (centres unmarked) [AEV40214] | 0.82 µM | 
Cn1cnc(S(=O)(=O)Nc2cccc(C3CCC(=O)NC3=O)c2)c1 (centres unmarked) [AEV40051] | 0.79 µM | 
CCCOc1ccc(C(=O)Nc2cccc(S(=O)(=O)Nc3cccc(C4CCC(=O)NC4=O)c3)c2)cc1 (centres unmarked) [AEV40193] | 0.86 µM | 
COC(=O)c1cccc(S(=O)(=O)Nc2cccc(C3CCC(=O)NC3=O)c2)c1 (centres unmarked) [AEV40226] | 2.22 µM | 
Nc1ccc(S(=O)(=O)Nc2cccc(C3CCC(=O)NC3=O)c2)cc1C(F)(F)F (centres unmarked) [AEV40075] | 1.12 µM | 
O=C1CCC(c2cccc(NC(=O)c3cccc4[nH]ccc34)c2)C(=O)N1 (centres unmarked) [AEV40191] | 0.48 µM | 

Structure (SMILES) | IC50 (cereblon (CRBN); [1]) | also measured
O=C1CCC(c2cccc(NCc3ccccc3)c2)C(=O)N1 (centres unmarked) [AEV40087] | 1.15 µM | 
O=C1CCC(c2cccc(NCc3ccc(C(F)(F)F)cc3)c2)C(=O)N1 (centres unmarked) [AEV40104] | 1.72 µM | 
O=C1CCC(c2ccc3oc(N4CCCCC4)nc3c2)C(=O)N1 (centres unmarked) [AEV40208] | 3.54 µM | 
O=C1CCC(c2cccc(NS(=O)(=O)c3ccccc3)c2)C(=O)N1 (centres unmarked) [AEV40025] | 1.86 µM | 
CC(=O)Nc1ccc(F)c(C2CCC(=O)NC2=O)c1 (centres unmarked) [AEV40034] | 6.26 µM | 
O=C1CCC(c2cccc(NC(=O)c3ccccc3F)c2)C(=O)N1 (centres unmarked) [AEV40145] | 1.03 µM | 
CCCCCCOc1ccc(NC(=O)CCc2cccc(Nc3cccc(C4CCC(=O)NC4=O)c3)c2)cc1 (centres unmarked) [AEV40199] | 3.47 µM | 
O=C1CCC(c2cccc(NCc3ccc(-c4ccccc4)cc3)c2)C(=O)N1 (centres unmarked) [AEV40122] | 2.47 µM | 
O=C1CCC(c2cccc(NC(=O)Nc3ccc(C(F)(F)F)cc3)c2)C(=O)N1 (centres unmarked) [AEV40133] | 1.26 µM | 
CC(C)(C)OC(=O)NCc1cccc(C2CCC(=O)NC2=O)c1 (centres unmarked) [AEV40130] | 4.33 µM | 
O=C1CCC(c2cccc(NC(=O)c3cccc(-c4ccccc4)c3)c2)C(=O)N1 (centres unmarked) [AEV40162] | 2.15 µM | 
O=C1CCC(c2cccc(NCc3cccc(F)c3)c2)C(=O)N1 (centres unmarked) [AEV40107] | 1.49 µM | 
O=C1CCC(c2cccc(NCc3ccc(Oc4ccccc4)cc3)c2)C(=O)N1 (centres unmarked) [AEV40103] | 3.13 µM | 
O=C1CCC(c2cccc(Nc3cccc(CCC(=O)NC4CC5(C4)CC(C(=O)O)C5)c3)c2)C(=O)N1 (centres unmarked) [AEV40211] | > 100 µM | 
O=C1CCC(c2ccc3c(c2)OCCN(Cc2ccccc2)C3=O)C(=O)N1 (centres unmarked) [AEV40086] | 4.14 µM | 
O=C1CCC(c2cccc(NS(=O)(=O)c3cccc(NC(=O)C4CCOCC4)c3)c2)C(=O)N1 (centres unmarked) [AEV40225] | 12.1 µM | 
O=C1CCC(c2cccc(NC(=O)c3ccccc3C(F)(F)F)c2)C(=O)N1 (centres unmarked) [AEV40180] | 1.13 µM | 
O=C1CCC(c2ccc3c(c2)OCCN(c2cccc(NC(=O)C4CCOCC4)c2)C3=O)C(=O)N1 (centres unmarked) [AEV40216] | 2.51 µM | 
O=C1CCC(c2cccc(NC(=O)c3cc(Cl)ccc3Cl)c2)C(=O)N1 (centres unmarked) [AEV40178] | 0.92 µM | 
COc1ccc(C(=O)Nc2cccc(C3CCC(=O)NC3=O)c2)c(Cl)c1 (centres unmarked) [AEV40176] | 1.24 µM | 
Cc1ccc(CNc2cccc(C3CCC(=O)NC3=O)c2)cc1F (centres unmarked) [AEV40095] | 1.58 µM | 
O=C1CCC(c2cccc(NC(=O)c3ccc(F)cc3F)c2)C(=O)N1 (centres unmarked) [AEV40164] | 1.67 µM | 
O=C1CCC(c2cccc(NS(=O)(=O)c3cccc(NC(=O)c4cc(F)c(F)cc4F)c3)c2)C(=O)N1 (centres unmarked) [AEV40153] | 0.8 µM | 
O=C1CCC(c2cccc(NS(=O)(=O)c3cccc(NCc4ccc5ocnc5c4)c3)c2)C(=O)N1 (centres unmarked) [AEV40172] | 0.21 µM | 
CC1(C(=O)Nc2cccc(N3CCOc4cc(C5CCC(=O)NC5=O)ccc4C3=O)c2)CC1 (centres unmarked) [AEV40212] | 2.3 µM | 

Structure (SMILES) | IC50 (cereblon (CRBN); [1]) | also measured
C[C@H](O)C(=O)Nc1cccc(C2CCC(=O)NC2=O)c1 (some centres unmarked) [AEV40031] | 3.86 µM | 
Cc1ccc(CNc2cccc(C3CCC(=O)NC3=O)c2)c(C)c1 (centres unmarked) [AEV40094] | 0.81 µM | 
O=C1CCC(c2cccc(NS(=O)(=O)c3ccc(Cl)cc3Cl)c2)C(=O)N1 (centres unmarked) [AEV40054] | 0.2 µM | 
O=C1CCC(c2cccc(NC(=O)c3cc(Br)ccc3Cl)c2)C(=O)N1 (centres unmarked) [AEV40223] | 1.38 µM | 
O=C1CCC(c2cccc(NS(=O)(=O)c3ccc(C(F)(F)F)cc3)c2)C(=O)N1 (centres unmarked) [AEV40100] | 1.39 µM | 
O=C1CCC(c2cccc(NC(=O)c3ccc(F)c(F)c3)c2)C(=O)N1 (centres unmarked) [AEV40166] | 2.52 µM | 
Cc1ccc(CNc2cccc(C3CCC(=O)NC3=O)c2)s1 (centres unmarked) [AEV40092] | 0.97 µM | 
COCCN1Cc2cc(C3CCC(=O)NC3=O)ccc2C1=O (centres unmarked) [AEV40042] | 5.4 µM | 
O=C1CCC(c2cccc(NC(=O)c3ccccc3)c2)C(=O)N1 (centres unmarked) [AEV40088] | 2.19 µM | 
O=C1CCC(c2ccc3c(c2)CN(S(=O)(=O)c2ccc(Cl)cc2)C3=O)C(=O)N1 (centres unmarked) [AEV40077] | 55.3 µM | 
Nc1cccc(C2CCC(=O)NC2=O)c1 (centres unmarked) [AEV40029] | 2.96 µM | 
Nc1cc(-c2ccccc2)n(C(=O)CCc2cccc(Nc3cccc(C4CCC(=O)NC4=O)c3)c2)n1 (centres unmarked) [AEV40201] | 1.22 µM | 
O=C1CCC(c2cccc(O)c2)C(=O)N1 (centres unmarked) [AEV40089] | 1.14 µM | 
O=C1CCC(c2cccc(NS(=O)(=O)c3cccc(NC(=O)c4ccc(Cl)cc4Cl)c3)c2)C(=O)N1 (centres unmarked) [AEV40150] | 1.82 µM | 
O=C1CCC(c2cccc(NS(=O)(=O)c3ccc4oc(=O)ccc4c3)c2)C(=O)N1 (centres unmarked) [AEV40071] | 0.22 µM | 
O=C1CCC(c2cccc(NCc3ccc(Br)cc3Cl)c2)C(=O)N1 (centres unmarked) [AEV40109] | 2.52 µM | 
CCCc1ccc(S(=O)(=O)Nc2cccc(C3CCC(=O)NC3=O)c2)cc1 (centres unmarked) [AEV40047] | 1.5 µM | 
O=C1CCC(c2cccc(NS(=O)(=O)c3cccc(NC(=O)c4c(Cl)ccc(Cl)c4F)c3)c2)C(=O)N1 (centres unmarked) [AEV40159] | 1.49 µM | 
CN1CCN(c2ccc(NC(=O)CCc3cccc(Nc4cccc(C5CCC(=O)NC5=O)c4)c3)cc2)CC1 (centres unmarked) [AEV40196] | 1.23 µM | 
O=C1CCC(c2cccc(NS(=O)(=O)c3cccc(NCc4ccc5[nH]ccc5c4)c3)c2)C(=O)N1 (centres unmarked) [AEV40171] | 1.28 µM | 
O=C1CCC(c2cccc(NCc3cc(F)c(F)c(F)c3)c2)C(=O)N1 (centres unmarked) [AEV40110] | 1.96 µM | 
O=C1CCC(c2cccc(NS(=O)(=O)c3cccc(NC(=O)c4cccc(Br)c4)c3)c2)C(=O)N1 (centres unmarked) [AEV40157] | 0.73 µM | 
Nc1nn(C(=O)CCc2cccc(Nc3cccc(C4CCC(=O)NC4=O)c3)c2)c2ccccc12 (centres unmarked) [AEV40202] | 0.79 µM | 
O=C1CCC(c2ccc(F)cc2)C(=O)N1 (centres unmarked) [AEV40004] | 4.43 µM | 
O=C1CCC(c2cccc(NS(=O)(=O)c3ccc([N+](=O)[O-])cc3)c2)C(=O)N1 (centres unmarked) [AEV40055] | 0.2 µM | 
